Experimental data from US8501977B2, “Platinum complex and pharmaceutical composition containing the same” (Unitech Co., Ltd., priority 2008, dated 2013).
Entries after “also recorded” stand apart in the source; their conditions may differ.

Tests used:
[1] = test system: A549 (human lung cancer cell); test: MTS cell proliferation test, A549 (Embodiment 8); assay type: cell-based
Protocol: (§1) Respectively, the S medicine test solution was prepared by dissolving the ((S,S,S) cis,cis-spiro[4,4]nonane-1,6-diamine)oxalatoplatinum(II) complex (compound 2; hereinafter, it is described as S medicine) into the dimethylsulfoxide (DMSO) with the concentration of 10 mg/ml and the R medicine test solution was prepared by dissolving the ((R,R,R)cis,cis-spiro[4,4]nonane-1,6-diamine) oxalatoplatinum(II) complex (compound 3; hereinafter, it is described as R medicine) into the dimethylsulfoxide (DMSO) with the concentration of 10 mg/ml.
(§2) The test was performed by using A549 (human lung cancer cell), LU65A (human lung cancer cell), RERF-LC-MA (human lung cancer cell), LU99 (human lung cancer cell), H460 (human lung cancer cell), HCT116 (human colon cancer cell), HT-29 (human colon cancer cell), MKN-45 (human gastric cancer cell), MKN-1 (human gastric cancer cell), U937 (human lymphoma cell), KP-1N (human pancreas cancer cell) and B2452 (human mesotheliama cell) as the cancer cell.
(§3) These cells were suspended in the each culture medium that the serum of 10% was added, and were dispensed in 96-well plate. And then, these were cultured in 5% CO2 at 37 degrees centigrade during a night. Next day, the S medicine test solution and the R medicine test solution were prepared in the culture medium to the various concentrations (5, 10, 20 μg/ml), and were dispensed into the plates that the cells were set preliminarily. And further, these were cultured in 5% CO2 at 37 degrees centigrade for three days.
(§4) The cell proliferation after the medicine addition was measured on the 3rd day from the 1st day after the medicine addition by the MTS method (kit for cell proliferation test manufactured by Promega Company).
(§5) The inhibition rate (%) of the cell proliferation was obtained from the measured MTS value by the following formula. Inhibition rate(%)=(1-MTS value of medicine addition group/MTS value of medicine non-addition group)×100
(§6) Because the value which was obtained by the above-mentioned formula represents the inhibition rate of the cell proliferation, the higher the numerical value is, the higher the medicine effect is. It is desired that the one whose value is 50% or more has the medicine effect.

[2] = test system: LU65A (human lung cancer cell); test: MTS cell proliferation test, LU65A (Embodiment 8); assay type: cell-based
Protocol: as §1, §2, §3, §4, §5, §6

[3] = test system: RERF-LC-MA (human lung cancer cell); test: MTS cell proliferation test, RERF-LC-MA (Embodiment 8); assay type: cell-based
Protocol: as §1, §2, §3, §4, §5, §6

[4] = test system: LU99 (human lung cancer cell); test: MTS cell proliferation test, LU99 (Embodiment 8); assay type: cell-based
Protocol: as §1, §2, §3, §4, §5, §6

[5] = test system: H460 (human lung cancer cell); test: MTS cell proliferation test, H460 (Embodiment 8); assay type: cell-based
Protocol: as §1, §2, §3, §4, §5, §6

[6] = test system: HCT116 (human colon cancer cell); test: MTS cell proliferation test, HCT116 (Embodiment 8); assay type: cell-based
Protocol: as §1, §2, §3, §4, §5, §6

[7] = test system: HT-29 (human colon cancer cell); test: MTS cell proliferation test, HT-29 (Embodiment 8); assay type: cell-based
Protocol: as §1, §2, §3, §4, §5, §6

[8] = test system: MKN-45 (human gastric cancer cell); test: MTS cell proliferation test, MKN-45 (Embodiment 8); assay type: cell-based
Protocol: as §1, §2, §3, §4, §5, §6

[9] = test system: MKN-1 (human gastric cancer cell); test: MTS cell proliferation test, MKN-1 (Embodiment 8); assay type: cell-based
Protocol: as §1, §2, §3, §4, §5, §6

[10] = test system: U937 (human lymphoma cell); test: MTS cell proliferation test, U937 (Embodiment 8); assay type: cell-based
Protocol: as §1, §2, §3, §4, §5, §6

[11] = test system: KP-1N (human pancreas cancer cell); test: MTS cell proliferation test, KP-1N (Embodiment 8); assay type: cell-based
Protocol: as §1, §2, §3, §4, §5, §6

[12] = test system: H2452 cell (human mesothelicana cell); test: MTS cell proliferation test, H2452 (Embodiment 8); assay type: cell-based
Protocol: as §1, §2, §3, §4, §5, §6

tumor cells = test: MTS cell proliferation test, all cancer cells of Embodiment 8; assay type: cell-based, human; settings: summary of Table 2 in words
Protocol: as §1
as §2, with “cell. […]” for “cell.”
as §4
The inhibition rate (%) of the cell proliferation was obtained from the measured MTS value by the following formula. […]

NC1CCCC12CCCC2N.O=C1[O][Pt][O]C1=O [R medicine, ((R,R,R)cis,cis-spiro[4,4]nonane-1,6-diamine) oxalatoplatinum(II) complex]
Inhibition rate of cell proliferation after 3 days from medicine addition (%) ([1]; A549, 5 μg/ml): Δ (Δ: 26~50%)
Inhibition rate of cell proliferation after 3 days from medicine addition (%) ([1]; A549, 10 μg/ml): ◯ (◯: 51~75%)
Inhibition rate of cell proliferation after 3 days from medicine addition (%) ([1]; A549, 20 μg/ml): ◯ (◯: 51~75%)
Inhibition rate of cell proliferation after 3 days from medicine addition (%) ([2]; 5 μg/ml): ⊚ (⊚: 76~100%)
Inhibition rate of cell proliferation after 3 days from medicine addition (%) ([2]; 10 μg/ml): ⊚ (⊚: 76~100%)
Inhibition rate of cell proliferation after 3 days from medicine addition (%) ([2]; 20 μg/ml): ⊚ (⊚: 76~100%)
Inhibition rate of cell proliferation after 3 days from medicine addition (%) ([3]; 5 μg/ml): Δ (Δ: 26~50%)
Inhibition rate of cell proliferation after 3 days from medicine addition (%) ([3]; 10 μg/ml): ◯ (◯: 51~75%)
Inhibition rate of cell proliferation after 3 days from medicine addition (%) ([3]; 20 μg/ml): ◯ (◯: 51~75%)
Inhibition rate of cell proliferation after 3 days from medicine addition (%) ([4]; LU99, 5 μg/ml): ⊚ (⊚: 76~100%)
Inhibition rate of cell proliferation after 3 days from medicine addition (%) ([4]; LU99, 10 μg/ml): ⊚ (⊚: 76~100%)
Inhibition rate of cell proliferation after 3 days from medicine addition (%) ([4]; LU99, 20 μg/ml): ⊚ (⊚: 76~100%)
Inhibition rate of cell proliferation after 3 days from medicine addition (%) ([5]; H460, 5 μg/ml): ◯ (◯: 51~75%)
Inhibition rate of cell proliferation after 3 days from medicine addition (%) ([5]; H460, 10 μg/ml): ⊚ (⊚: 76~100%)
Inhibition rate of cell proliferation after 3 days from medicine addition (%) ([5]; H460, 20 μg/ml): ⊚ (⊚: 76~100%)
Inhibition rate of cell proliferation after 3 days from medicine addition (%) ([6]; HCT116, 5 μg/ml): ◯ (◯: 51~75%)
Inhibition rate of cell proliferation after 3 days from medicine addition (%) ([6]; HCT116, 10 μg/ml): ⊚ (⊚: 76~100%)
Inhibition rate of cell proliferation after 3 days from medicine addition (%) ([6]; HCT116, 20 μg/ml): ⊚ (⊚: 76~100%)
Inhibition rate of cell proliferation after 3 days from medicine addition (%) ([7]; HT-29, 5 μg/ml): ◯ (◯: 51~75%)
Inhibition rate of cell proliferation after 3 days from medicine addition (%) ([7]; HT-29, 10 μg/ml): ◯ (◯: 51~75%)
Inhibition rate of cell proliferation after 3 days from medicine addition (%) ([7]; HT-29, 20 μg/ml): ⊚ (⊚: 76~100%)
Inhibition rate of cell proliferation after 3 days from medicine addition (%) ([8]; MKN-45, 5 μg/ml): ⊚ (⊚: 76~100%)
Inhibition rate of cell proliferation after 3 days from medicine addition (%) ([8]; MKN-45, 10 μg/ml): ⊚ (⊚: 76~100%)
Inhibition rate of cell proliferation after 3 days from medicine addition (%) ([8]; MKN-45, 20 μg/ml): ⊚ (⊚: 76~100%)
Inhibition rate of cell proliferation after 3 days from medicine addition (%) ([9]; MKN-1, 5 μg/ml): ⊚ (⊚: 76~100%)
Inhibition rate of cell proliferation after 3 days from medicine addition (%) ([9]; MKN-1, 10 μg/ml): ⊚ (⊚: 76~100%)
Inhibition rate of cell proliferation after 3 days from medicine addition (%) ([9]; MKN-1, 20 μg/ml): ⊚ (⊚: 76~100%)
Inhibition rate of cell proliferation after 3 days from medicine addition (%) ([10]; U937, 5 μg/ml): ⊚ (⊚: 76~100%)
Inhibition rate of cell proliferation after 3 days from medicine addition (%) ([10]; U937, 10 μg/ml): ⊚ (⊚: 76~100%)
Inhibition rate of cell proliferation after 3 days from medicine addition (%) ([10]; U937, 20 μg/ml): ⊚ (⊚: 76~100%)
Inhibition rate of cell proliferation after 3 days from medicine addition (%) ([11]; 5 μg/ml): ◯ (◯: 51~75%)
Inhibition rate of cell proliferation after 3 days from medicine addition (%) ([11]; 10 μg/ml): ⊚ (⊚: 76~100%)
Inhibition rate of cell proliferation after 3 days from medicine addition (%) ([11]; 20 μg/ml): ⊚ (⊚: 76~100%)
Inhibition rate of cell proliferation after 3 days from medicine addition (%) ([12]; H2452, 5 μg/ml): Δ (Δ: 26~50%)
Inhibition rate of cell proliferation after 3 days from medicine addition (%) ([12]; H2452, 10 μg/ml): ◯ (◯: 51~75%)
Inhibition rate of cell proliferation after 3 days from medicine addition (%) ([12]; H2452, 20 μg/ml): ◯ (◯: 51~75%)
medicine effect for the many tumor cells (tumor cells): high medicine effect compared with the oxaliplatin; also recorded: higher in the effect
